# Key:
# Format in all cases: functional
# [1] = tested on: A498; assay: Cytotoxicity against human A498 cells assessed as cellular growth at 0.01 uM after 48 hrs by SRB assay relative to control
# [2] = tested on: SNB-19; assay: Cytotoxicity against human SNB19 cells after 48 hrs by SRB assay; settings: SNB-19, 48 h
# [3] = tested on: RXF 393; assay: Cytotoxicity against human RXF393 cells assessed as cellular growth at 100 uM after 48 hrs by SRB assay relative to control
# [4] = tested on: T47D; assay: Cytotoxicity against human T47D cells assessed as cellular growth at 0.1 uM after 48 hrs by SRB assay relative to control
# [5] = tested on: A549; assay: Cytotoxicity against human A549 cells assessed as cellular growth at 100 uM after 48 hrs by SRB assay relative to control
# [6] = tested on: Hs-578T; assay: Cytotoxicity against human Hs578T cells assessed as cellular growth at 0.1 uM after 48 hrs by SRB assay relative to control
# [7] = tested on: NCI-H460; assay: Cytotoxicity against human NCI-H460 cells assessed as cellular growth at 0.1 uM after 48 hrs by SRB assay relative to control
# [8] = tested on: KM12; assay: Cytotoxicity against human KM12 cells assessed as cellular growth at 0.01 uM after 48 hrs by SRB assay relative to control
# [9] = tested on: MCF7; assay: Cytotoxicity against human MCF7 cells assessed as cellular growth at 0.1 uM after 48 hrs by SRB assay relative to control
# [10] = tested on: 786-0; assay: Cytotoxicity against human 786-0 cells assessed as cellular growth at 100 uM after 48 hrs by SRB assay relative to control
# [11] = tested on: SK-OV-3; assay: Cytotoxicity against human SKOV3 cells assessed as cellular growth at 0.1 uM after 48 hrs by SRB assay relative to control
# [12] = tested on: SF-268; assay: Cytotoxicity against human SF268 cells after 48 hrs by SRB assay; settings: SF-268, 48 h
# [13] = tested on: A498; assay: Cytotoxicity against human A498 cells assessed as cellular growth at 1 uM after 48 hrs by SRB assay relative to control
# [14] = tested on: NCI-H460; assay: Cytotoxicity against human NCI-H460 cells assessed as cellular growth at 0.01 uM after 48 hrs by SRB assay relative to control
# [15] = tested on: LOX IMVI; assay: Cytotoxicity against human LOXIMVI cells assessed as cellular growth at 0.01 uM after 48 hrs by SRB assay relative to control
# [16] = tested on: RXF 393; assay: Cytotoxicity against human RXF393 cells after 48 hrs by SRB assay; settings: RXF 393, 48 h
# [17] = tested on: SK-MEL-28; assay: Cytotoxicity against human SK-MEL-28 cells assessed as cellular growth at 100 uM after 48 hrs by SRB assay relative to control
# [18] = tested on: M14; assay: Cytotoxicity against human M14 cells assessed as cellular growth at 10 uM after 48 hrs by SRB assay relative to control
# [19] = tested on: K562; assay: Cytotoxicity against human K562 cells assessed as cellular growth at 0.1 uM after 48 hrs by SRB assay relative to control
# [20] = tested on: SF-295; assay: Cytotoxicity against human SF295 cells assessed as cellular growth at 0.01 uM after 48 hrs by SRB assay relative to control
# [21] = Cytotoxicity against human NCI-ADR-RES cells assessed as cellular growth at 1 uM after 48 hrs by SRB assay relative to control
# [22] = tested on: SW-620; assay: Cytotoxicity against human SW620 cells assessed as cellular growth at 100 uM after 48 hrs by SRB assay relative to control
# [23] = Cytotoxicity against human NCI-ADR-RES cells after 48 hrs by SRB assay
# [24] = tested on: KM12; assay: Cytotoxicity against human KM12 cells assessed as cellular growth at 100 uM after 48 hrs by SRB assay relative to control
# [25] = tested on: RXF 393; assay: Cytotoxicity against human RXF393 cells assessed as cellular growth at 0.01 uM after 48 hrs by SRB assay relative to control
# [26] = tested on: SK-MEL-28; assay: Cytotoxicity against human SK-MEL-28 cells assessed as cellular growth at 0.1 uM after 48 hrs by SRB assay relative to control
# [27] = tested on: SK-OV-3; assay: Cytotoxicity against human SKOV3 cells after 48 hrs by SRB assay; settings: SK-OV-3, 48 h
# [28] = tested on: HOP-62; assay: Cytotoxicity against human HOP62 cells assessed as cellular growth at 1 uM after 48 hrs by SRB assay relative to control
# [29] = tested on: MDA-MB-468; assay: Cytotoxicity against human MDA-MB-468 cells assessed as cellular growth at 100 uM after 48 hrs by SRB assay relative to control
# [30] = tested on: NCI-H322M; assay: Cytotoxicity against human NCI-H322M cells assessed as cellular growth at 0.01 uM after 48 hrs by SRB assay relative to control
# [31] = tested on: T47D; assay: Cytotoxicity against human T47D cells assessed as cellular growth at 0.01 uM after 48 hrs by SRB assay relative to control
# [32] = tested on: LOX IMVI; assay: Cytotoxicity against human LOXIMVI cells after 48 hrs by SRB assay
# [33] = tested on: HCT-116; assay: Cytotoxicity against human HCT116 cells assessed as cellular growth at 0.1 uM after 48 hrs by SRB assay relative to control
# [34] = tested on: 786-0; assay: Cytotoxicity against human 786-0 cells assessed as cellular growth at 1 uM after 48 hrs by SRB assay relative to control
# [35] = tested on: NCI-H522; assay: Cytotoxicity against human NCI-H522 cells assessed as cellular growth at 0.1 uM after 48 hrs by SRB assay relative to control
# [36] = tested on: NCI-H23; assay: Cytotoxicity against human NCI-H23 cells assessed as cellular growth at 0.01 uM after 48 hrs by SRB assay relative to control
# [37] = tested on: Hs-578T; assay: Cytotoxicity against human Hs578T cells assessed as cellular growth at 1 uM after 48 hrs by SRB assay relative to control
# [38] = tested on: MDA-MB-468; assay: Cytotoxicity against human MDA-MB-468 cells assessed as cellular growth at 0.01 uM after 48 hrs by SRB assay relative to control
# [39] = read-out: LC50 (the source's name)
# [40] = read-out: pLC50 (the source's name) (converted)
smiles,measurement,setting,value
O=C(CCCn1c2c(sc3ccccc32)c(=O)n2nnc(-c3ccccc3)c12)NCCc1c[nH]cn1,Activity,[1],93%
same,GI50,[2]; read-out: GI50,5.12 µM
same,CC50,[2]; [39],54.3 µM
same,TGI,[2]; read-out: TGI,22.1 µM
same,GI50,[2]; read-out: pGI50 (converted),5.13 µM
same,CC50,[2]; [40],53.7 µM
same,TGI,[2]; read-out: pTGI (converted),21.9 µM
same,Activity,[3],-61%
same,Activity,[4],55%
same,Activity,[5],-2%
same,Activity,[6],91%
same,Activity,[7],114%
same,Activity,[8],106%
same,Activity,[9],75%
same,Activity,[10],-68%
same,Activity,[11],99%
same,GI50,[12]; read-out: GI50,1.54 µM
same,CC50,[12]; [39],6.7 µM
same,TGI,[12]; read-out: TGI,3.21 µM
same,GI50,[12]; read-out: pGI50 (converted),1.55 µM
same,CC50,[12]; [40],6.76 µM
same,TGI,[12]; read-out: pTGI (converted),3.24 µM
same,Activity,[13],55%
same,Activity,[14],111%
same,Activity,[15],103%
same,GI50,[16]; read-out: GI50,2.2 µM
same,CC50,[16]; [39],7.77 µM
same,TGI,[16]; read-out: TGI,4.14 µM
same,GI50,[16]; read-out: pGI50 (converted),2.19 µM
same,CC50,[16]; [40],7.76 µM
same,TGI,[16]; read-out: pTGI (converted),4.17 µM
same,Activity,[17],-100%
same,Activity,[18],-80.56%
same,Activity,[19],23%
same,Activity,[20],101%
same,Activity,[21],51%
same,Activity,[22],-100%
same,GI50,[23]; read-out: GI50,1.07 µM
same,CC50,[23]; [39],> 100 µM
same,TGI,[23]; read-out: TGI,> 100 µM
same,GI50,[23]; read-out: pGI50 (converted),1.07 µM
same,Activity,[24],-100%
same,Activity,[25],118%
same,Activity,[26],121%
same,GI50,[27]; read-out: GI50,2.39 µM
same,CC50,[27]; [39],29.2 µM
same,TGI,[27]; read-out: TGI,8.5 µM
same,GI50,[27]; read-out: pGI50 (converted),2.4 µM
same,CC50,[27]; [40],29.5 µM
same,TGI,[27]; read-out: pTGI (converted),8.51 µM
same,Activity,[28],67%
same,Activity,[29],-100%
same,Activity,[30],104%
same,Activity,[31],85%
same,GI50,[32]; read-out: GI50,1.51 µM
same,CC50,[32]; [39],5.49 µM
same,TGI,[32]; read-out: TGI,2.88 µM
same,GI50,[32]; read-out: pGI50 (converted),1.51 µM
same,CC50,[32]; [40],5.5 µM
same,TGI,[32]; read-out: pTGI (converted),2.88 µM
same,Activity,[33],4%
same,Activity,[34],53%
same,Activity,[35],42%
same,Activity,[36],92%
same,Activity,[37],70%
same,Activity,[38],102%
CN1CCN(CCCn2c3c(sc4ncccc43)c(=O)n3nnc(-c4ccccc4)c23)CC1,Activity,[1],67%
same,GI50,[2]; read-out: GI50,2.5 µM
same,CC50,[2]; [39],> 100 µM
same,TGI,[2]; read-out: TGI,5.62 µM
same,GI50,[2]; read-out: pGI50 (converted),2.51 µM
same,CC50,[2]; [40],> 100 µM
same,TGI,[2]; read-out: pTGI (converted),5.62 µM
same,Activity,[3],-83%
same,Activity,[4],100%
same,Activity,[5],-42%
same,Activity,[6],93%
same,Activity,[7],100%
same,Activity,[8],101%
same,Activity,[9],87%
same,Activity,[10],-58%
same,Activity,[11],94%
same,GI50,[12]; read-out: GI50,1.61 µM
same,CC50,[12]; [39],6.81 µM
same,TGI,[12]; read-out: TGI,3.31 µM
same,GI50,[12]; read-out: pGI50 (converted),1.62 µM
same,CC50,[12]; [40],6.76 µM
same,TGI,[12]; read-out: pTGI (converted),3.31 µM
same,Activity,[13],76%
same,Activity,[14],102%
same,Activity,[15],93%
same,GI50,[16]; read-out: GI50,1.7 µM
same,CC50,[16]; [39],5.86 µM
same,TGI,[16]; read-out: TGI,3.15 µM
same,GI50,[16]; read-out: pGI50 (converted),1.7 µM
same,CC50,[16]; [40],5.89 µM
same,TGI,[16]; read-out: pTGI (converted),3.16 µM
same,Activity,[17],-97%
same,Activity,[18],-75%
same,Activity,[19],98%
same,Activity,[20],106%
same,Activity,[21],92%
same,Activity,[22],-75%
same,GI50,[23]; read-out: GI50,2.23 µM
same,CC50,[23]; [39],43.2 µM
same,TGI,[23]; read-out: TGI,5.8 µM
same,GI50,[23]; read-out: pGI50 (converted),2.24 µM
same,CC50,[23]; [40],43.7 µM
same,TGI,[23]; read-out: pTGI (converted),5.75 µM
same,Activity,[24],-83%
same,Activity,[25],100%
same,Activity,[26],95%
same,GI50,[27]; read-out: GI50,18.7 µM
same,CC50,[27]; [39],59.6 µM
same,TGI,[27]; read-out: TGI,33.4 µM
same,GI50,[27]; read-out: pGI50 (converted),18.6 µM
same,CC50,[27]; [40],60.3 µM
same,TGI,[27]; read-out: pTGI (converted),33.1 µM
same,Activity,[28],97%
same,Activity,[29],-91%
same,Activity,[30],97%
same,Activity,[31],89%
same,GI50,[32]; read-out: GI50,1.66 µM
same,TGI,[32]; read-out: TGI,3.36 µM
same,GI50,[32]; read-out: pGI50 (converted),1.66 µM
same,TGI,[32]; read-out: pTGI (converted),3.39 µM
same,Activity,[33],96%
same,Activity,[34],100%
same,Activity,[35],97%
same,Activity,[36],100%
same,Activity,[37],96%
same,Activity,[38],94%

# From ChEMBL document CHEMBL2401728, “An unexpected Dimroth rearrangement leading to annelated thieno[3,2-d][1,2,3]triazolo[1,5-a]pyrimidines with potent antitumor activity” (Eur J Med Chem, 2013)
